Measured values reported in ChEMBL document CHEMBL3882724 (2013).

How the values were obtained:
[1] = biological target: T1, CYP21 (steroid 21-hydroxylase) (Homo sapiens, UniProt P08686); assay: Inhibition of human CYP21 transfected in HEK293 cells assessed as decrease in conversion of progesterone to 11-deoxycorticosterone preincubated for 5 hrs followed by progesterone addition measured after 20 hrs by ELISA; type: cell-based; set-up: concentration or dose not given beside the values; settings: HEK293 cells transfected with human CYP21, probe progesterone
T1 sequence (P08686 whole entry): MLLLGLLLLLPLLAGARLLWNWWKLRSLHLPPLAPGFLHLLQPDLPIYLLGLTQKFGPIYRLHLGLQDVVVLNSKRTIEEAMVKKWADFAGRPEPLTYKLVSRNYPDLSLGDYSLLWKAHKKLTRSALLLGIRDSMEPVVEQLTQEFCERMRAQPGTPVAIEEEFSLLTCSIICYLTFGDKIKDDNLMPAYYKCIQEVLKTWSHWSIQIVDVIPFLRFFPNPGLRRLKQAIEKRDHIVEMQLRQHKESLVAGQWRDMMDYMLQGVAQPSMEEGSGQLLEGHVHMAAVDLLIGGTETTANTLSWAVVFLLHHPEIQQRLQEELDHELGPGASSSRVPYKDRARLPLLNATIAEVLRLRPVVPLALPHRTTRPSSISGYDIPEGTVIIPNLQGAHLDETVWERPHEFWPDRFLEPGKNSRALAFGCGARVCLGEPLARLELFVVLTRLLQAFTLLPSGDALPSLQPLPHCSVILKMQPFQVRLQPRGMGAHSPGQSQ

[2] = biological target: T2, Steroid 17-alpha-hydroxylase/17,20 lyase (Homo sapiens, UniProt P05093); assay: Inhibition of CYP17 in human testicular microsomes using 17alpha-hydroxypregnenolone as substrate assessed as decrease in DHEA levels after 90 mins by ELISA; set-up: species or system Testis
T2 sequence (P05093 whole entry): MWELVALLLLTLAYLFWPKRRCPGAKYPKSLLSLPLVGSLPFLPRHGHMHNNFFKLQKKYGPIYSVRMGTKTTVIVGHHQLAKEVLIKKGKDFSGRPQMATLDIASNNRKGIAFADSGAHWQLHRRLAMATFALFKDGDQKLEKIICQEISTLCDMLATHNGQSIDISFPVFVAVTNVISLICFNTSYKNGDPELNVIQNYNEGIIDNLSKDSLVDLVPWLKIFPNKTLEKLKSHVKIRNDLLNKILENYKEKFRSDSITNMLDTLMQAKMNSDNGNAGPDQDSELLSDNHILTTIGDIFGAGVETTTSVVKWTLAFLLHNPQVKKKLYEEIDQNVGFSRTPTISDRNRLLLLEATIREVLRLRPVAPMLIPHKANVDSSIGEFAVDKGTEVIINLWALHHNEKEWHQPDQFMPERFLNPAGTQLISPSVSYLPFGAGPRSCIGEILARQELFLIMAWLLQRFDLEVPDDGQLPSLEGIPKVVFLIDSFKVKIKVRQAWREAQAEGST

[3] = Half life in human liver microsomes at 1 uM by LC-MS/MS analysis
[4] = biological target: T2, Steroid 17-alpha-hydroxylase/17,20 lyase; assay: Inhibition of CYP17 in human testicular microsomes using 17alpha-hydroxypregnenolone as substrate assessed as decrease in DHEA levels at 1 nM after 90 mins by ELISA relative to control; set-up: species or system Testis
[5] = biological target: T2, Steroid 17-alpha-hydroxylase/17,20 lyase; assay: Inhibition of CYP17 in human H295R cells assessed as decrease in testosterone levels after 24 hrs by ELISA; type: cell-based
CYP11B = biological target: T3, CYP11B (Rattus norvegicus, UniProt P15393+P30099); assay: Inhibition of Sprague-Dawley rat adrenal mitochondrial CYP11B assessed as decrease in conversion of 11-deoxycortisol to cortisol at 100 nM incubated for 60 mins by ELISA relative to control; type: protein assay; settings: adrenal mitochondria, probe 11-deoxycortisol
T3 sequence (P30099 whole entry): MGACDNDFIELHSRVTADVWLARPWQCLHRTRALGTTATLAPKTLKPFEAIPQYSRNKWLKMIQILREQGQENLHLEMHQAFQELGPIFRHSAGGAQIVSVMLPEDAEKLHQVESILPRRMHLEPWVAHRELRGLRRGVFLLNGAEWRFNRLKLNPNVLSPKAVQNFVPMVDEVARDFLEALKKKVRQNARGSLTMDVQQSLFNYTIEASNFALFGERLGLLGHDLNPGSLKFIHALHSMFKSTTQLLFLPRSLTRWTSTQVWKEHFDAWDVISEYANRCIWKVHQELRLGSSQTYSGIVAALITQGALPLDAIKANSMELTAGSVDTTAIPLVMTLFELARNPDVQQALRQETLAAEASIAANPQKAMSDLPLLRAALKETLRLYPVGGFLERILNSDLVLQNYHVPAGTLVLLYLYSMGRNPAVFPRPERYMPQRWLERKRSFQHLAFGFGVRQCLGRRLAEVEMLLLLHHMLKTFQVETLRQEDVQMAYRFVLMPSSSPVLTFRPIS
T3 sequence (P15393 whole entry): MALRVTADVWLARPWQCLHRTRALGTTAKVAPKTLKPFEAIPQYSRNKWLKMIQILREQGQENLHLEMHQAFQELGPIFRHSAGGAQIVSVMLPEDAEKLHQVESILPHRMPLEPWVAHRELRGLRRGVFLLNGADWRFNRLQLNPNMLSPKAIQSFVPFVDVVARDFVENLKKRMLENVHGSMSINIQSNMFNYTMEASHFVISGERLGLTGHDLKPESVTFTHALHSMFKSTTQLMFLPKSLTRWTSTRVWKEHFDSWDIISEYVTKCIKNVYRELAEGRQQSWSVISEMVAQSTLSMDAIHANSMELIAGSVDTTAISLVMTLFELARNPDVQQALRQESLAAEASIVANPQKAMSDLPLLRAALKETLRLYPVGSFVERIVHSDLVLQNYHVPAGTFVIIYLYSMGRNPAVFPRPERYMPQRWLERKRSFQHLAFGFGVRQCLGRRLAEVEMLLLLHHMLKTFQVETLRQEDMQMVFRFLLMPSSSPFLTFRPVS

[6] = biological target: T2, Steroid 17-alpha-hydroxylase/17,20 lyase; assay: Inhibition of CYP17 in human testicular microsomes using 17alpha-hydroxypregnenolone as substrate assessed as decrease in DHEA levels at 10 nM after 90 mins by ELISA relative to control; set-up: species or system Testis; settings: 1.5 h

Row | inhibition at 20 h [1] | inhibition at 1 h, 0.1 µM (CYP11B) | inhibition at 0.01 µM [6] | Compound | IC50 [2] | half-life at 1 µM [3] | IC50 [4] | IC50 [5]
1 | 10 to 50% |  |  | C[C@]12CCNC(=O)C=C1C1(CC1)C[C@@H]1[C@@H]2CC[C@]2(C)C(c3cccnc3)=CC[C@@H]12 | ≤ 11 nM | 1 to 50 min | ≤ 10 nM | ≤ 15 nM
2 | 10 to 50% | ≥ 50% |  | CN1C(=O)C[C@@]2(C)C1=CC[C@@H]1[C@@H]2CC[C@]2(C)C(n3ccnc3)=CC[C@@H]12 |  |  |  | 
3 | 10 to 50% | ≥ 50% |  | C[C@]12CC[C@H]3[C@@H](CC=C4C[C@H](NC(=O)C5CC5)CC[C@@]43C)C1=CC=C2n1ccnc1 |  |  |  | 
4 |  | ≥ 50% | 1 to 50% | CC(=O)O[C@H]1CC[C@@]2(C)C(=CC[C@H]3C4=CC=C(c5cccnc5)[C@@]4(C)CC[C@@H]32)C1 |  |  |  | 
5 |  | ≥ 50% | 50 to 80% | CN1C(=O)CC[C@@]2(C)C1=CC[C@@H]1[C@@H]2CC[C@]2(C)C(n3ccnc3)=CC[C@@H]12 |  |  |  | 
6 | ≥ 50% | ≥ 50% |  | CN1C(=O)C[C@@]2(C)C1=CC[C@@H]1[C@@H]2CC[C@]2(C)C(c3cccnc3)=CC[C@@H]12 | ≤ 11 nM |  |  | 
7 | < 10% | < 32% |  | CN1C(=O)CC[C@@]2(C)C1=CC[C@@H]1[C@@H]2CC[C@]2(C)C(n3cncc3C#N)=CC[C@@H]12 |  |  |  | 
8 | 10 to 50% | ≥ 50% |  | CCOc1cncc(C2=CC[C@H]3[C@@H]4CC=C5N(C)C(=O)C[C@]5(C)[C@H]4CC[C@]23C)c1 |  |  |  | 
9 | 10 to 50% | ≥ 50% |  | CN1C(=O)CC[C@@]2(C)C1=CC[C@@H]1[C@@H]2CC[C@]2(C)C(c3cncc(F)c3)=CC[C@@H]12 |  |  |  | 
10 | ≥ 50% | < 32% |  | COc1cncc(C2=CC[C@H]3[C@@H]4CC=C5N(C)C(=O)C[C@]5(C)[C@H]4CC[C@]23C)c1 | ≤ 11 nM | 1 to 50 min |  | 
11 | 10 to 50% | ≥ 50% |  | C[C@]12CC[C@H](O)CC1=CC[C@@H]1[C@@H]2CC[C@]2(C)C(n3cncc3C#N)=CC[C@@H]12 |  |  |  | 
12 | 10 to 50% | ≥ 50% |  | CCC(=O)N1CCC[C@@]2(C)C(CC[C@@H]3[C@@H]2CC[C@]2(C)C(c4cccnc4)=CC[C@@H]32)C1 (some centres undefined) | ≤ 11 nM |  |  | 
13 | 10 to 50% | < 32% |  | CCC(=O)N1CCC2CC[C@@H]3[C@H](CC[C@]4(C)C(c5cccnc5)=CC[C@@H]34)[C@@]2(C)CC1 (some centres undefined) | ≤ 11 nM |  |  | 
14 | ≥ 50% | < 32% |  | CCCC(=O)N1CCC2CC[C@@H]3[C@H](CC[C@]4(C)C(n5ccnc5)=CC[C@@H]34)[C@@]2(C)CC1 (some centres undefined) | ≤ 11 nM |  |  | 
15 |  | ≥ 50% | 50 to 80% | Cc1cncc(C2=CC[C@H]3[C@@H]4CC=C5N(C)C(=O)CCC[C@]5(C)[C@H]4CC[C@]23C)c1 |  |  |  | 
16 |  | < 32% | 1 to 50% | CN1CC=C2CC[C@@H]3[C@H](CC[C@]4(C)C(n5ccnc5)=CC[C@@H]34)[C@@]2(C)CC1 |  |  |  | 
17 | 10 to 50% | < 32% |  | CC(=O)N[C@@H]1CC[C@@]2(C)C(=CC[C@H]3C4=CC=C(n5ccnc5)[C@@]4(C)CC[C@@H]32)C1 |  |  |  | 
18 |  |  |  | C=C1C[C@@H]2[C@H](CC[C@]3(C)C(c4cncc(F)c4)=CC[C@@H]23)[C@@]2(C)C=CC(=O)C=C12 | ≤ 11 nM | 1 to 50 min | > 100 nM | ≤ 15 nM
19 |  | ≥ 50% |  | C[C@]12CCCN(S(C)(=O)=O)CC1CC[C@@H]1[C@@H]2CC[C@]2(C)C(n3ccnc3)=CC[C@@H]12 (some centres undefined) |  |  |  | 
20 | 10 to 50% | ≥ 50% |  | CC(=O)N1CCC[C@@]2(C)[C@@H](CC[C@@H]3[C@@H]2CC[C@]2(C)C(n4ccnc4)=CC[C@@H]32)C1 |  |  |  | 
21 | 10 to 50% | < 32% |  | Cc1cncc(C2=CC[C@H]3[C@@H]4CC=C5N(C)C(=O)C[C@]5(C)[C@H]4CC[C@]23C)c1 |  |  |  | 

Row | Compound | inhibition at 20 h [1] | inhibition at 1 h, 0.1 µM (CYP11B) | inhibition at 0.01 µM [6] | IC50 [2] | half-life at 1 µM [3] | IC50 [4] | IC50 [5]
22 | COC(=O)N[C@@H]1CC[C@@]2(C)C(=CC[C@@H]3[C@@H]2CC[C@]2(C)C(n4ccnc4)=CC[C@@H]32)C1 | ≥ 50% | < 32% |  | ≤ 11 nM |  |  | 
23 | C[C@]12CCC(=O)C=C1C1(CC1)C[C@@H]1[C@@H]2CC[C@]2(C)C(c3cccnc3)=CC[C@@H]12 | ≥ 50% |  |  | ≤ 11 nM | 1 to 50 min | ≤ 10 nM | ≤ 15 nM
24 | C[C@]12CC[C@@H](NC(=O)C3CC3)CC1=CC[C@@H]1[C@@H]2CC[C@]2(C)C(n3ccnc3)=CC[C@@H]12 | ≥ 50% | ≥ 50% |  | ≤ 11 nM | 1 to 50 min |  | 
25 | C[C@]12CC[C@H]3[C@@H](CCC4=CC(=O)C=C[C@@]43C)C1=CC=C2c1cccnc1 | ≥ 50% |  |  | ≤ 11 nM | 1 to 50 min | 10 to 100 nM | ≤ 15 nM
26 | C=C1C[C@@H]2[C@H](CC[C@]3(C)C(c4cccnc4)=CC[C@@H]23)[C@@]2(C)CCC(=O)C=C12 | ≥ 50% |  |  | ≤ 11 nM | 1 to 50 min | 10 to 100 nM | ≤ 15 nM
27 | C[C@]12CC[C@H]3[C@@H](CCC4=CC(=O)CC[C@@]43C)C1=CC=C2c1cncc(F)c1 | ≥ 50% |  |  | ≤ 11 nM | 1 to 50 min | 10 to 100 nM | ≤ 15 nM
28 | CC1C[C@@H]2[C@H](CC[C@]3(C)C(c4cccnc4)=CC[C@@H]23)[C@@]2(C)CCC(=O)C=C12 (some centres undefined) | ≥ 50% |  |  | ≤ 11 nM | 1 to 50 min | 10 to 100 nM | ≤ 15 nM
29 | C[C@]12C=CC(=O)C=C1C1(CC1)C[C@@H]1[C@@H]2CC[C@]2(C)C(c3cccnc3)=CC[C@@H]12 | 10 to 50% |  |  | ≤ 11 nM | 1 to 50 min | ≤ 10 nM | ≤ 15 nM
30 | C=C1CC2[C@H](CC[C@]3(C)C(c4cccnc4)=CC[C@@H]23)C2(C)C=CC(=O)C=C12 (single isomer, unassigned) | ≥ 50% |  |  | ≤ 11 nM | 1 to 50 min | ≤ 10 nM | ≤ 15 nM
